According to patent publication US20150025077A1 (COYOTE PHARMACEUTICALS, INC., priority 2012, published 2015):

Legend:
RhoA = test: Active RhoA to total RhoA in Neuro2A cells (G-LISA, ELISA); assay type: cell-based, mouse; conditions: 48 hrs treatment, ratio of active RhoA to total RhoA as percentage of DMSO treatments, concentration not given
Method: Mouse neuroblastoma Neuro2A cells were cultured in DMEM supplemented with 10% FBS for 24 hrs. […] Cell lysates were quantified and subjected either to active RhoA assay using G-LISA RhoA activation Assay Biochem Kit (Cytoskeleton Inc), or to total RhoA assay using Total RhoA ELISA Kit (Cytoskeleton Inc). The results were calculated as ratio of active RhoA to total RhoA and averaged from 3 biological repeats of one experiment with background subtraction. The data was presented as percentage of DMSO treatments.

Rap1 = test: Prenylation of Rap1 in Neuro2A cells, western blotting; assay type: cell-based, mouse; conditions: 100 nM; with GGTI-298; percentage of control (GGTI only)
Method: Mouse neuroblastoma Neuro2A cells were cultured in DMEM supplemented with 10% FBS for 24 hrs. The cells were treated with 102GGA derivative compounds for 24 hrs first before GGTase inhibitor GGTI-298 was added to the culture medium for additional 24 hr incubation. […] Both un-prenylated and total Rap1 protein bands were quantified using Image J and normalized to their respective loading control GAPDH. The results for control and each compound treatment were calculated as the ratio of normalized un-prenylated Rap1 to total Rap1, and averaged from two biological repeats of one experiment. The final results were presented as a percentage of the control treatments (GGTI only) from the same batch experiment. The data shown in the chart were averaged from two repeats of one experiment and presented as the ratio of normalized un-prenylated Rap1 to total Rapt Compound ID numbers in table refer to structures in Table 1 and Table 2.

Sprague Dawley rats = test: Kainic acid stereotactic hippocampus injection model, fraction of cells damaged; assay type: in vivo, rat; conditions: KA at 72 hours
Method: CNS-102 was administered orally to Sprague Dawley rats at 12 mg/kg. After dosing, KA was stereotactically injected into the hippocampus at 24, 48, 72, 96 and 168 hours to induce neuron damage. After 24 h, hippocampus tissue was collected, stained, and imaged. The scans were analyzed by Image J to calculate the fraction of cells having KA-induced damage. Average fraction damaged in the hippocampus from ten animals for each treatment (PBS vs. 12 mg/kg CNS-102) by time (24, 48, 72, 96 and 168 hours) combination was estimated with PROC MIXED in SAS. Comparisons of the CNS-102 treatment groups to the pooled PBS treatment at the different times can be made, giving the results tabulated below.
The fraction of cells damaged in the kainic acid model was determined on 130 rats, each receiving one dose of CNS-102 at either 0, 1, 3, 6, 12 or 24 mg/kg. PBS was used for dosing at 0 mg/kg. The linear model of the log10 percent damage versus concentration is graphically shown FIG. 5.
After dosing, KA was stereotactically injected into the hippocampus at 72 hours to induce neuron damage. After 24 h, hippocampus tissue was collected, stained, and imaged. The scans were analyzed by Image J to calculate the fraction of cells having KA-induced damage.
The indicated compounds or vehicle control were orally dosed to Sprague-Dawley rats, and Kainic acid was injected. After dosing, KA was stereotactically injected into the hippocampus at 72 hours to induce neuron damage. After 24 h, hippocampus tissue was collected, stained, and imaged. The scans were analyzed by Image J to calculate the fraction of cells having KA-induced damage. Neurons damaged by Kainic acid (mean of hippocampus CA3 neurons damaged) were quantified.

HSP70 = HSP70 levels in Neuro 2a cells, ELISA; assay type: cell-based, mouse; conditions: 48 hrs compound then 24 hrs GGTI-298
Method: Mouse neuroblastoma 2a cells were cultured in DMEM with 10% FBS for 24 hrs. […] After 24 hrs cells were harvested and lysates were prepared and analyzed by ELISA for HSP70. Compound ID numbers in table refer to structures in Table 1 and Table 2.

## COC(=O)[C@@H](NC(=O)OC(C)CC/C=C(\C)CC/C=C(\C)CCC=C(C)C)C(C)C (stereo partly drawn) [Compound 20j, 5E,9E-farnesyl prop-2-yl Methyl 2-(S)-(−)-3-methylbutyrate Carbamate]
RhoA
  % Relative RhoGTPase Activity: 85.9%
Rap1
  unprenylated/total RAP1 (%): 59%

## CCCCCNC(=O)OC/C=C(\C)CC/C=C(\C)CCC=C(C)C [Compound 8b, n-Pentyl 2E, 6E-farnesyl carbamate]
Sprague Dawley rats; 3 mg/kg oral
  Mean of Hippocampus CA3 Neurons Damaged: 20%
HSP70; 10uM
  HSP70 level, ELISA signal (absence of compounds normalized as 1.00): 1.38
RhoA
  % Relative RhoGTPase Activity: 125.0%
Rap1
  unprenylated/total RAP1 (%): 55%

## COc1ccc(NC(=O)OC/C=C(\C)CC/C=C(\C)CC/C=C(\C)CCC=C(C)C)c(OC)c1 [Compound 7w, 2′,4′-Dimethoxyphenyl 2E, 6E, 10E-geranylgeranyl carbamate]
HSP70; 100 nM
  HSP70 level, ELISA signal (absence of compounds normalized as 1.00): 1.14
RhoA
  % Relative RhoGTPase Activity: 94.4%
Rap1
  unprenylated/total RAP1 (%): 77%

## CCOC(=O)CCNC(=O)OC/C=C(\C)CC/C=C(\C)CCC=C(C)C [Compound 8m, Carboethoxy-2′-ethyl 2E, 6E-farnesyl carbamate]
HSP70; 10uM
  HSP70 level, ELISA signal (absence of compounds normalized as 1.00): 1.05
RhoA
  % Relative RhoGTPase Activity: 111.4%

## CC(C)=CCC/C(C)=C/CC/C(C)=C/CC/C(C)=C/C1=N[C@H](C(C)C)C(=O)O1 [Compound 37a, (R)-4-isopropyl-2-((1E,5E,9E)-2,6,10,14-tetramethylpentadeca-1,5,9,13-tetraen-1-yl)oxazol-5(4H)-one]
HSP70; 100 nM
  HSP70 level, ELISA signal (absence of compounds normalized as 1.00): 1.04
HSP70; 10uM
  HSP70 level, ELISA signal (absence of compounds normalized as 1.00): 1.10
RhoA
  % Relative RhoGTPase Activity: 106.8%

## CC(C)=CCC/C(C)=C/CC/C(C)=C/CC/C(C)=C/C1=N[C@@H](C)CO1 [Compound 27b, (S)-4-methyl-2-((1E,5E,9E)-2,6,10,14-tetramethylpentadeca-1,5,9,13-tetraen-1-yl)-4,5-dihydrooxazole]
HSP70; 100 nM
  HSP70 level, ELISA signal (absence of compounds normalized as 1.00): 1.16
HSP70; 10uM
  HSP70 level, ELISA signal (absence of compounds normalized as 1.00): 1.22
RhoA
  % Relative RhoGTPase Activity: 89.0%

## CCOC(=O)C(C/C=C(\C)CC/C=C(\C)CC/C=C(\C)CC/C=C(\C)CCC=C(C)C)C(C)=O (stereo not drawn) [Compound 135]
HSP70; 10uM
  HSP70 level, ELISA signal (absence of compounds normalized as 1.00): 1.07
RhoA
  % Relative RhoGTPase Activity: 93.2%
Rap1
  unprenylated/total RAP1 (%): 50%

## C=CCNC(=O)OC/C=C(\C)CC/C=C(\C)CCC=C(C)C [Compound 8j, Allyl 2E, 6E-farnesyl carbamate]
HSP70; 10 nM
  HSP70 level, ELISA signal (absence of compounds normalized as 1.00): 1.13
HSP70; 10uM
  HSP70 level, ELISA signal (absence of compounds normalized as 1.00): 1.31
RhoA
  % Relative RhoGTPase Activity: 105.6%

## CC(C)=CCC/C(C)=C/CC/C(C)=C/CC/C(C)=C/c1nnc(-c2ccc(C)cc2)o1 [Compound 29b, 2-((1E,5E,9E)-2,6,10,14-tetramethylpentadeca-1,5,9,13-tetraen-1-yl)-5-(p-tolyl)-1,3,4-oxadiazole]
HSP70; 100 nM
  HSP70 level, ELISA signal (absence of compounds normalized as 1.00): 1.11
HSP70; 10uM
  HSP70 level, ELISA signal (absence of compounds normalized as 1.00): 1.17
RhoA
  % Relative RhoGTPase Activity: 96.1%
Rap1
  unprenylated/total RAP1 (%): 49%

## CC(C)=CCC/C(C)=C/CC/C(C)=C/COC(=O)NC1CCCCC1 [Compound 8f, Cyclohexyl 2E, 6E-farnesyl carbamate]
HSP70; 10uM
  HSP70 level, ELISA signal (absence of compounds normalized as 1.00): 1.29
RhoA
  % Relative RhoGTPase Activity: 104.6%

## CNC(=S)OC/C=C(\C)CC/C=C(\C)CCC=C(C)C [Compound 43, O-((2E,6E)-3,7,11-trimethyldodeca-2,6,10-trien-1-yl) methylcarbamothioate]
HSP70; 10uM
  HSP70 level, ELISA signal (absence of compounds normalized as 1.00): 0.95
RhoA
  % Relative RhoGTPase Activity: 102.7%

## CC(C)=CCC/C(C)=C/CC/C(C)=C/CC/C(C)=C/COC(=O)Nc1ccc2ccccc2c1 [Compound 7s, 2′-Naphthyl 2E, 6E, 10E-geranylgeranyl carbamate]
HSP70; 10uM
  HSP70 level, ELISA signal (absence of compounds normalized as 1.00): 1.10
RhoA
  % Relative RhoGTPase Activity: 86.9%
Rap1
  unprenylated/total RAP1 (%): 89%

## CC(C)=CCC/C(C)=C/CC/C(C)=C/CC/C(C)=C/CCC1(C)OCCO1 [Compound 105]
RhoA
  % Relative RhoGTPase Activity: 85.1%
Rap1
  unprenylated/total RAP1 (%): 64%

## CC(C)=CCC/C(C)=C/CC/C(C)=C/CC/C(C)=C/COC(=O)Nc1ccc(C(F)(F)F)cc1 [Compound 7q, p-Trifluoromethylphenyl 2E, 6E, 10E-geranylgeranyl carbamate]
HSP70; 10 nM
  HSP70 level, ELISA signal (absence of compounds normalized as 1.00): 1.01
RhoA
  % Relative RhoGTPase Activity: 83.5%
Rap1
  unprenylated/total RAP1 (%): 48%

## CCCCNC(=S)OC/C=C(\C)CC/C=C(\C)CC/C=C(\C)CCC=C(C)C [Compound 10e, O-((2E,6E,10E)-3,7,11,15-tetramethylhexadeca-2,6,10,14-tetraen-1-yl) butylcarbamothioate]
HSP70; 100 nM
  HSP70 level, ELISA signal (absence of compounds normalized as 1.00): 1.09
RhoA
  % Relative RhoGTPase Activity: 89.7%
Rap1
  unprenylated/total RAP1 (%): 56%

## CC(C)=CCC/C(C)=C/CC/C(C)=C/COC(=O)Nc1ccccc1 [Compound 8o, Phenyl 2E, 6E-farnesyl carbamate]
HSP70; 10uM
  HSP70 level, ELISA signal (absence of compounds normalized as 1.00): 0.99
RhoA
  % Relative RhoGTPase Activity: 82.1%

## CC(C)=CCC/C(C)=C/CC/C(C)=C/CC/C(C)=C/COC(=O)Nc1cc(Cl)c(Cl)c(Cl)c1 [Compound 7y, 3′,4′,5′-Trichlorophenyl 2E, 6E, 10E-geranylgeranyl carbamate]
HSP70; 10uM
  HSP70 level, ELISA signal (absence of compounds normalized as 1.00): 1.13
RhoA
  % Relative RhoGTPase Activity: 94.4%
Rap1
  unprenylated/total RAP1 (%): 68%

## CCOc1cc(OCC)cc(C(=O)OC/C=C(\C)CC/C=C(\C)CC/C=C(\C)CCC=C(C)C)c1 [Compound 2i, 2E, 6E, 10E-Geranylgeranyl-3′,5′-diethoxybenzoate]
HSP70; 100 nM
  HSP70 level, ELISA signal (absence of compounds normalized as 1.00): 1.08
RhoA
  % Relative RhoGTPase Activity: 105.0%
Rap1
  unprenylated/total RAP1 (%): 92%

## CCC(C)NC(=O)OC/C=C(\C)CC/C=C(\C)CCC=C(C)C (stereo not drawn) [Compound 8g, Sec-Butyl 2E, 6E-farnesyl carbamate]
HSP70; 10 nM
  HSP70 level, ELISA signal (absence of compounds normalized as 1.00): 1.17
HSP70; 10uM
  HSP70 level, ELISA signal (absence of compounds normalized as 1.00): 1.51
RhoA
  % Relative RhoGTPase Activity: 111.3%

## COCCNC(=S)OC/C=C(\C)CC/C=C(\C)CC/C=C(\C)CCC=C(C)C [Compound 10i, Methoxy-2′-ethyl 2E,6E,10E-geranylgeranyl thiocarbamate]
Sprague Dawley rats; 2 mg/kg oral
  Mean of Hippocampus CA3 Neurons Damaged: 22%
HSP70; 100 nM
  HSP70 level, ELISA signal (absence of compounds normalized as 1.00): 1.04
HSP70; 10uM
  HSP70 level, ELISA signal (absence of compounds normalized as 1.00): 1.08
Rap1
  unprenylated/total RAP1 (%): 83%

## CCNC(=S)OC/C=C(\C)CC/C=C(\C)CC/C=C(\C)CCC=C(C)C [Compound 10b, Ethyl 2E,6E,10E-geranylgeranyl thiocarbamate]
HSP70; 100 nM
  HSP70 level, ELISA signal (absence of compounds normalized as 1.00): 1.06
HSP70; 10uM
  HSP70 level, ELISA signal (absence of compounds normalized as 1.00): 1.34
RhoA
  % Relative RhoGTPase Activity: 86.2%
